Measurements as given in PubChem BioAssay (NCI).
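Assay format: 96-well plates, 48-hour exposure. GI50 = concentration required for 50% inhibition of growth. TGI marks complete inhibition of growth.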

Columns and labels:
Assay in all cases: DTP human tumour cell line panel, 48 h
[1] = system: MDA-MB-231 breast
[2] = system: KM12 colon
[3] = system: LOX IMVI melanoma
[4] = system: OVCAR-3 ovarian
[5] = system: RXF 393 renal
[6] = system: OVCAR-8 ovarian
[7] = system: SN12C renal
[8] = system: NCI-H23 lung
[9] = system: SK-MEL-2 melanoma
[10] = system: EKVX NSCLC
[11] = system: NCI/ADR-RES ovarian
[12] = system: HT29 colon
[13] = system: A549 NSCLC
[14] = system: UO-31 renal
[15] = system: COLO 205 colon
[16] = system: DU-145 prostate
[17] = system: CAKI-1 renal
[18] = system: K-562 leukemia
[19] = system: MDA-MB-435
[20] = system: SF-268 CNS
[21] = system: TK-10 renal
[22] = system: U251 CNS
[23] = system: HCT-116 colon
[24] = system: SNB-75 CNS
[25] = system: RPMI-8226 leukemia
[26] = system: T-47D breast
[27] = system: ACHN renal
[28] = system: HOP-62 NSCLC
[29] = system: MCF7 breast
[30] = system: OVCAR-4 ovarian
[31] = system: NCI-H460 lung
[32] = system: UACC-257 melanoma
[33] = system: OVCAR-5 ovarian
[34] = system: NCI-H226 lung
[35] = system: MOLT-4 leukemia
[36] = system: NCI-H522 lung
[37] = system: BT-549 breast
[38] = system: SF-539 CNS
[39] = system: 786-0 renal
[40] = system: SK-MEL-5 melanoma
[41] = system: HS 578T breast
[42] = system: CCRF-CEM leukemia
[43] = system: PC-3 prostate
[44] = system: SF-295 CNS
[45] = system: IGROV1 ovarian
[46] = system: HL-60(TB) leukemia
[47] = system: SK-OV-3 ovarian
[48] = system: SW-620 colon
[49] = system: HOP-92 NSCLC
[50] = system: HCT-15 colon
[51] = system: SNB-19 CNS
[52] = system: M14 melanoma
[53] = system: HCC-2998 colon
[54] = system: UACC-62 melanoma
[55] = system: A498 renal
[56] = system: SK-MEL-28 melanoma
[57] = system: SR leukemia

Q: What does the source list for `Cc1ccc2c(Nc3cccc(Cl)c3F)ncc(NC(=O)c3csc4c(N)ncnc34)c2c1`?
A: GI50 [1]: 0.164 µM; TGI [1]: > 94 µM; GI50 [2]: > 20.7 µM; TGI [2]: > 100 µM; GI50 [3]: 0.0743 µM; TGI [3]: > 100 µM; GI50 [4]: > 100 µM; TGI [4]: > 100 µM; GI50 [5]: > 100 µM; TGI [5]: > 100 µM; GI50 [6]: > 76.8 µM; TGI [6]: > 100 µM; GI50 [7]: > 100 µM; TGI [7]: > 100 µM; GI50 [8]: 0.522 µM; TGI [8]: > 100 µM; GI50 [9]: 0.0856 µM; TGI [9]: > 100 µM; GI50 [10]: > 100 µM; TGI [10]: > 100 µM; GI50 [11]: > 100 µM; TGI [11]: > 100 µM; GI50 [12]: 0.0779 µM; TGI [12]: > 100 µM; GI50 [13]: > 73.5 µM; TGI [13]: > 100 µM; GI50 [14]: 0.291 µM; TGI [14]: > 100 µM; GI50 [15]: 0.0492 µM; TGI [15]: > 100 µM; GI50 [16]: > 100 µM; TGI [16]: > 100 µM; GI50 [17]: 0.734 µM; TGI [17]: > 100 µM; GI50 [18]: 1.5 µM; TGI [18]: > 100 µM; GI50 [19]: 0.326 µM; TGI [19]: > 100 µM; GI50 [20]: > 100 µM; TGI [20]: > 100 µM; GI50 [21]: > 100 µM; TGI [21]: > 100 µM; GI50 [22]: > 76.3 µM; TGI [22]: > 100 µM; GI50 [23]: 0.0961 µM; TGI [23]: > 100 µM; GI50 [24]: > 100 µM; TGI [24]: > 100 µM; GI50 [25]: 2.81 µM; TGI [25]: > 100 µM; GI50 [26]: > 100 µM; TGI [26]: > 100 µM; GI50 [27]: > 100 µM; TGI [27]: > 100 µM; GI50 [28]: 0.359 µM; TGI [28]: > 100 µM; GI50 [29]: > 100 µM; TGI [29]: > 100 µM; GI50 [30]: > 100 µM; TGI [30]: > 100 µM; GI50 [31]: > 100 µM; TGI [31]: > 100 µM; GI50 [32]: 0.0715 µM; TGI [32]: > 100 µM; GI50 [33]: 0.137 µM; TGI [33]: > 100 µM; GI50 [34]: > 100 µM; TGI [34]: > 100 µM; GI50 [35]: > 100 µM; TGI [35]: > 100 µM; GI50 [36]: > 100 µM; TGI [36]: > 100 µM; GI50 [37]: > 100 µM; TGI [37]: > 100 µM; GI50 [38]: > 100 µM; TGI [38]: > 100 µM; GI50 [39]: > 100 µM; TGI [39]: > 100 µM; GI50 [40]: > 100 µM; TGI [40]: > 100 µM; GI50 [41]: > 100 µM; TGI [41]: > 100 µM; GI50 [42]: 21.2 µM; TGI [42]: > 100 µM; GI50 [43]: > 100 µM; TGI [43]: > 100 µM; GI50 [44]: > 100 µM; TGI [44]: > 100 µM; GI50 [45]: 0.605 µM; TGI [45]: > 100 µM; GI50 [46]: 0.0656 µM; TGI [46]: > 100 µM; GI50 [47]: > 100 µM; TGI [47]: > 100 µM; GI50 [48]: 1.21 µM; TGI [48]: > 100 µM; GI50 [49]: 0.136 µM; TGI [49]: 1.72 µM; GI50 [50]: > 100 µM; TGI [50]: > 100 µM; GI50 [51]: > 100 µM; TGI [51]: > 100 µM; GI50 [52]: 0.0351 µM; TGI [52]: 0.608 µM; GI50 [53]: 0.281 µM; TGI [53]: > 100 µM

Q: With `O=C1Nc2cc([N+](=O)[O-])ccc2C(=O)N2CCC[C@@H]12` as the compound, how does the TGI [1] read?
A: The TGI was greater than 100 µM.

Q: What about the TGI [2] of the same compound?
A: Its TGI is greater than 100 µM.

Q: And the TGI [3]?
A: Its TGI is greater than 100 µM.

Q: What about the TGI [4] of the same compound?
A: The TGI was greater than 100 µM.

Q: What about the TGI [5] of the same compound?
A: The TGI was greater than 100 µM.

Q: And the TGI [6]?
A: Its TGI is greater than 100 µM.

Q: What about the TGI [7] of the same compound?
A: The TGI was greater than 100 µM.

Q: What about the TGI [8] of the same compound?
A: Its TGI is greater than 100 µM.

Q: And the TGI [9]?
A: The TGI was greater than 100 µM.

Q: And the TGI [10]?
A: Its TGI is greater than 100 µM.

Q: What about the TGI [11] of the same compound?
A: The TGI was greater than 100 µM.

Q: And the TGI [12]?
A: Its TGI is greater than 100 µM.

Q: And the TGI [13]?
A: The TGI was greater than 100 µM.

Q: What about the TGI [14] of the same compound?
A: Its TGI is greater than 100 µM.

Q: What about the TGI [15] of the same compound?
A: The TGI was greater than 100 µM.

Q: And the TGI [16]?
A: The TGI was greater than 100 µM.

Q: And the TGI [17]?
A: The TGI was greater than 100 µM.

Q: What about the TGI [18] of the same compound?
A: Its TGI is greater than 100 µM.

Q: And the TGI [19]?
A: The TGI was greater than 100 µM.

Q: What about the TGI [20] of the same compound?
A: Its TGI is greater than 100 µM.

Q: And the TGI [21]?
A: Its TGI is greater than 100 µM.

Q: And the TGI [22]?
A: The TGI was greater than 100 µM.

Q: What about the TGI [23] of the same compound?
A: Its TGI is greater than 100 µM.

Q: What about the TGI [24] of the same compound?
A: The TGI was greater than 100 µM.

Q: What about the TGI [25] of the same compound?
A: The TGI was greater than 100 µM.

Q: What about the TGI [54] of the same compound?
A: The TGI was greater than 100 µM.

Q: And the TGI [26]?
A: The TGI was greater than 100 µM.

Q: And the TGI [27]?
A: Its TGI is greater than 100 µM.

Q: What about the TGI [28] of the same compound?
A: Its TGI is greater than 100 µM.

Q: What about the TGI [29] of the same compound?
A: The TGI was greater than 100 µM.

Q: What about the TGI [30] of the same compound?
A: Its TGI is greater than 100 µM.

Q: And the TGI [31]?
A: The TGI was greater than 100 µM.

Q: And the TGI [32]?
A: Its TGI is greater than 100 µM.

Q: And the TGI [33]?
A: The TGI was greater than 100 µM.

Q: What about the TGI [55] of the same compound?
A: The TGI was greater than 100 µM.

Q: What about the TGI [34] of the same compound?
A: Its TGI is greater than 100 µM.

Q: What about the TGI [35] of the same compound?
A: Its TGI is greater than 100 µM.

Q: What about the TGI [36] of the same compound?
A: The TGI was greater than 100 µM.

Q: And the TGI [37]?
A: The TGI was greater than 100 µM.

Q: What about the TGI [38] of the same compound?
A: Its TGI is greater than 100 µM.

Q: What about the TGI [39] of the same compound?
A: The TGI was greater than 100 µM.

Q: What about the TGI [40] of the same compound?
A: Its TGI is greater than 100 µM.

Q: And the TGI [41]?
A: Its TGI is greater than 100 µM.

Q: What about the TGI [42] of the same compound?
A: The TGI was greater than 100 µM.

Q: What about the TGI [43] of the same compound?
A: The TGI was greater than 100 µM.

Q: What about the TGI [56] of the same compound?
A: The TGI was greater than 100 µM.

Q: What about the TGI [44] of the same compound?
A: The TGI was greater than 100 µM.

Q: And the TGI [45]?
A: Its TGI is greater than 100 µM.

Q: And the TGI [57]?
A: Its TGI is greater than 100 µM.

Q: And the TGI [46]?
A: Its TGI is greater than 100 µM.

Q: What about the TGI [47] of the same compound?
A: The TGI was greater than 100 µM.

Q: And the TGI [48]?
A: The TGI was greater than 100 µM.

Q: And the TGI [49]?
A: The TGI was greater than 100 µM.

Q: And the TGI [50]?
A: The TGI was greater than 100 µM.

Q: What about the TGI [51] of the same compound?
A: Its TGI is greater than 100 µM.

Q: And the TGI [52]?
A: The TGI was greater than 100 µM.

Q: What about the TGI [53] of the same compound?
A: Its TGI is greater than 100 µM.
